One block for each compound: values may come before it.
Assays:
Type in all cases: cell-based
AR = biological target: T1, AR (Homo sapiens, UniProt P10275); test: Western blot degradation of AR; conditions: LnCap Cell; 24 hours
T1 construct: expression of target proteins in cells; endogenous in cells
T1 sequence (P10275 1-920): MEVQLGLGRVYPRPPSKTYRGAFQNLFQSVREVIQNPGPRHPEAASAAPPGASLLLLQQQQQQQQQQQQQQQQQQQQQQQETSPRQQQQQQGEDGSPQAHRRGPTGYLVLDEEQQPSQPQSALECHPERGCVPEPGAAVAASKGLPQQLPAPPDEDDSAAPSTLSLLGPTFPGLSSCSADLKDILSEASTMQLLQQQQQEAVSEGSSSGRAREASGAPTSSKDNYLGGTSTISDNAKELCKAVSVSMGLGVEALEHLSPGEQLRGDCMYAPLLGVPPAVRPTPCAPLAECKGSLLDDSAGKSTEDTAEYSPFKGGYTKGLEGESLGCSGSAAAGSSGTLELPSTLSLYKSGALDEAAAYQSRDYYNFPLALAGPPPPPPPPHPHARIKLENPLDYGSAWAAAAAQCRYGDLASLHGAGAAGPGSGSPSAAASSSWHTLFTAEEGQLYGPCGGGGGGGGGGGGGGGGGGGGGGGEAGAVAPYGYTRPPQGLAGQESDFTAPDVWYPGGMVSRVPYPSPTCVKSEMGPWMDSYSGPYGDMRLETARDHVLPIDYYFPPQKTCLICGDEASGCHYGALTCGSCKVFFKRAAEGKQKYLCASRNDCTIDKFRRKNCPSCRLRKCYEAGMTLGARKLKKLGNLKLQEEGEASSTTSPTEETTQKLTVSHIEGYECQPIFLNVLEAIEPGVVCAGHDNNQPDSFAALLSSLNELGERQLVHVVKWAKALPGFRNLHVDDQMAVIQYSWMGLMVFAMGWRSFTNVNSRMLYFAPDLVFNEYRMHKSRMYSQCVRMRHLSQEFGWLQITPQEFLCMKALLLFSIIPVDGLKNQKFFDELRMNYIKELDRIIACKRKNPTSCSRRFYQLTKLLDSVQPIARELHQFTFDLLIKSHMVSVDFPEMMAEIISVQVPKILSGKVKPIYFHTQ
Procedure: Conventional Western blot assay was performed to evaluate the effects of the compounds of the present disclosure on the expression of target proteins in cells.
(1) Cell Seeding and Protein Harvesting: The selected cells were processed according to the cell seeding procedure and protein harvesting procedure in Table II-2.
(2) To the collected supernatant, 5×SDS sample loading buffer was added, followed by denaturation at 95 °C for 5 minutes. The denatured samples were then separated by SDS-PAGE electrophoresis on a polyacrylamide gel. Proteins were transferred to a nitrocellulose membrane (0.45 μm NC membrane), blocked with blocking buffer at room temperature for 1 hour, and subjected to antibody incubation and development procedures according to the antibody manufacturer's instructions (Cell Signaling Technology).
Half-Maximal Degradation Concentration value (the drug concentration required for degrading proteins by 50%, abbreviated as DC50) reads method: comparing the grayscale values of Western blot bands from drug-treated samples with those from blank DMSO-treated controls, and identifying the drug concentration range at which the grayscale value is half that of the DMSO-treated control bands.
DC50 values can be calculated using ImageJ software to measure grayscale values of Western blot bands from drug-treated samples. The concentration-response curve is fitted to estimate the drug concentration corresponding to half the grayscale value.
Target protein remaining (%) refers to the percentage of target protein remaining in cells after treatment with protein degrader compounds.
Calculation method for target protein remaining (%): Use ImageJ software to measure grayscale values of Western blot bands from drug (protein degrader)-treated samples. The grayscale value of drug-treated bands is divided by that of internal control protein bands, and the resulting quotient is normalized to obtain the relative percentage of remaining target protein after protein degrader treatment.
Target protein degradation rate (%)=1−target protein remaining (%).

[1] = tested on: Human myeloid monocytic leukemia cell line (MV-4-11); test: Inhibition of MV-4-11 cell proliferation (CellTiter luminescent viability); conditions: Homo sapiens, MV4-11, MV-4-11 cell; for inhibition at 0.01 µM: 10 nM, read-out: Inhibition Rate at 10 nM (%); for inhibition at 0.5 µM: 500 nM, read-out: Inhibition Rate at 500 nM (%)
How it was run: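 IC50 is fitted from luminescent viability (CellTiter-Meiluncell) curves. Nine-point, 5-fold dilution series (top stock 2000 μM) are added at 0.5 μL per 100 μL medium to cells plated the day before, with growth at 37 °C and 5% CO2.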

[2] = tested on: Human lung cancer cell line (H292); test: Inhibition of H292 cell proliferation (CellTiter luminescent viability); conditions: NCI-H292, H292 cell; for inhibition at 0.01 µM: 10 nM, read-out: Inhibition Rate at 10 nM (%); for inhibition at 0.5 µM: 500 nM, read-out: Inhibition Rate at 500 nM (%)
[3] = tested on: Human breast cancer cell line (MDA-MB-231); test: Inhibition of MDA-MB-231 cell proliferation (CellTiter luminescent viability); conditions: MDA-MB-231 cell; for inhibition at 0.01 µM: 10 nM, read-out: Inhibition Rate at 10 nM (%); for inhibition at 0.5 µM: 500 nM, read-out: Inhibition Rate at 500 nM (%)
Procedure: The tumor cells used herein were cultured in a cell culture medium listed in table 3 at 37 °C in an incubator with 5% CO2. Prior to experimentation, all cell lines used were correctly identified by STR profiling, and tested negative for mycoplasma contamination using a mycoplasma detection kit through routine screenings.
The IC50 values of the compounds of the present disclosure (including the compounds in Table 1, Table 2, and Examples 1-468) were determined using the CellTiter-Meiluncell Luminescent Cell Viability Assay Kit from Dalian Meilun Biotech Co., Ltd. The detailed procedure is as follows: Tumor cells were seeded in 96-well cell culture plates at the densities specified in Table 4. On the following day, the test compounds of the present disclosure were subjected to serial dilution. The dilution can be performed according to one of the following two methods: • (1) The first dilution method: The test compounds of the present disclosure (including the compounds in Table 1, Table 2, and Examples 1-468) were subjected to 5-fold serial dilutions starting from a highest concentration of 2000 μM, resulting in a total of 9 concentrations from high to low (2000, 400, 80, 16, 3.2, 0.64, 0.128, 0.0256, 0.00512 μM). Subsequently, 0.5 μL of the test compound dilution was transferred into the 96-well plate containing the cells, with each well containing 100 μL of cell culture medium. […] Into the 96-well plate, the diluted test compounds and corresponding detection reagents were added, resulting in final test compound concentrations of 500 nM and 10 nM, respectively. The experimental procedure is described below using the diluted 2 μM test compound as an example.
0.5 μL of the aforementioned diluted compound of the present disclosure (including the compounds in Table 1, Table 2, and Examples 1-468) was added to the seeded cells in 100 μL of medium, yielding a final test compound concentration of 10 nM. After the cells were treated with the compounds of the present disclosure for a specified period, the cell viability assay reagent was added to the culture medium according to the kit's instructions to determine cell viability. […] All controls were treated using the same procedure as the compounds of the present disclosure. The growth inhibition curves for the compounds of the present disclosure were plotted using Prism GraphPad software, and the IC50 values were calculated therefrom.

[4] = tested on: Human diffuse large B-cell lymphoma cell line (TMD8); test: Inhibition of TMD8 cell proliferation (CellTiter luminescent viability); conditions: Homo sapiens, TMD8, 96 h, Table IF1, AR inhibitor-based
[5] = tested on: Human acute lymphocytic leukemia T lymphocytes cell line (CCRF-CEM); test: Inhibition of CCRF-CEM cell proliferation (CellTiter luminescent viability); conditions: Homo sapiens, 96 h, Table IF2, AR inhibitor-based

SMILES: N#Cc1ccc(O[C@H]2CC[C@H](NC(=O)c3ccc(N4CCC(CN5CCN(c6ccc7c(c6)C(=O)N(N6CCC(=O)NC6=O)C7=O)CC5)CC4)nn3)CC2)cc1Cl [GT-05225, N-((1r,4r)-4-(3-chloro-4-cyanophenoxy)cyclohexyl)-6-(4-((4-(2-(2,4-dioxotetrahydropyrimidin-1(2H)-yl)-1,3-dioxoisoindolin-5-yl)piperazin-1-yl)methyl)piperidin-1-yl)pyridazine-3-carboxamide]
Degradation of substrate protein AR (substrate protein remaining %) (AR): A (0%≤substrate protein remaining %≤80%)

SMILES: Nc1cccc2c1CN(C1CCC(=O)NC1=O)C2=O (centres unmarked) [Lenalidomide, lenalidomide, reference compound]
inhibition at 0.01 µM [1]: 20 to 30%
inhibition at 0.5 µM [1]: 10 to 15%
inhibition at 0.01 µM [2]: 15 to 20%
inhibition at 0.5 µM [2]: 0 to 5%
inhibition at 0.01 µM [3]: 0 to 5%
inhibition at 0.5 µM [3]: 0 to 5%

SMILES: NCc1ccc2c(c1)CN(N1CCC(=O)NC1=O)C2=O [GT-08118, 1-(5-(aminomethyl)-1-oxoisoindolin-2-yl)dihydropyrimidine-2,4(1H, 3H)-dione]
inhibition at 0.01 µM [1]: 40 to 50%
inhibition at 0.5 µM [1]: 50 to 60%
inhibition at 0.01 µM [2]: 20 to 30%
inhibition at 0.5 µM [2]: 20 to 30%
inhibition at 0.01 µM [3]: 20 to 30%
inhibition at 0.5 µM [3]: 20 to 30%

SMILES: N#Cc1ccc(O[C@H]2CC[C@H](NC(=O)c3ccc(N4CCC(CN5CCN(C6CCN(c7ccc8c(c7)C(=O)N(N7CCC(=O)NC7=O)C8=O)CC6)CC5)CC4)nn3)CC2)cc1Cl [GT-05829, N-((1r,4r)-4-(3-chloro-4-cyanophenoxy)cyclohexyl)-6-(4-((4-(1-(2-(2,4-dioxotetrahydropyrimidin-1(2H)-yl)-1,3-dioxoisoindolin-5-yl)piperidin-4-yl)piperazin-1-yl)methyl)piperidin-1-yl)pyridazine-3-carboxamide]
inhibition at 0.01 µM ([4]; TMD8, 10 nM, read-out: Inhibition Rate at 10 nM (%)): 10 to 15%
inhibition at 0.5 µM ([4]; TMD8, 500 nM, read-out: Inhibition Rate at 500 nM (%)): 35 to 40%
Degradation of substrate protein AR (substrate protein remaining %) (AR): A (0%≤substrate protein remaining %≤80%)
inhibition at 0.01 µM ([5]; 10 nM, read-out: Inhibition Rate at 10 nM (%)): 15 to 20%
inhibition at 0.5 µM ([5]; 500 nM, read-out: Inhibition Rate at 500 nM (%)): 20 to 30%

Continued, values first:

Degradation of substrate protein AR (substrate protein remaining %) (AR): A (0%≤substrate protein remaining %≤80%)
SMILES: Cc1ccc(-c2c(C)noc2C)cc1N(CC1CCN(Cc2ccc3c(c2)C(=O)N(N2CCC(=O)NC2=O)C3=O)CC1)c1ccc(C2(C#N)CC2)cc1 [GT-06410, 1-(4-((5-(3,5-dimethylisoxazol-4-yl)-2-methylphenyl)((1-((2-(2,4-dioxotetrahydropyrimidin-1(2H)-yl)-1,3-dioxoisoindolin-5-yl)methyl)piperidin-4-yl)methyl)amino)phenyl)cyclopropane-1-carbonitrile]

Degradation of substrate protein AR (substrate protein remaining %) (AR): A (0%≤substrate protein remaining %≤80%)
SMILES: Cc1ccc(-c2c(C)noc2C)cc1N(CC1CCN(CC2CCN(c3ccc4c(c3)C(=O)N(N3CCC(=O)NC3=O)C4=O)CC2)CC1)c1ccc(C2(C#N)CC2)cc1 [GT-06418, 1-(4-((5-(3,5-dimethylisoxazol-4-yl)-2-methylphenyl)((1-((1-(2-(2,4-dioxotetrahydropyrimidin-1(2H)-yl)-1,3-dioxoisoindolin-5-yl)piperidin-4-yl)methyl)piperidin-4-yl)methyl)amino)phenyl)cyclopropane-1-carbonitrile]

Degradation of substrate protein AR (substrate protein remaining %) (AR): A (0%≤substrate protein remaining %≤80%)
SMILES: Cc1ccc(-c2c(C)noc2C)cc1N(CC1CCN(Cc2ccc3c(c2)CN(N2CCC(=O)NC2=O)C3=O)CC1)c1ccc(C2(C#N)CC2)cc1 [GT-06409, 1-(4-((5-(3,5-dimethylisoxazol-4-yl)-2-methylphenyl)((1-((2-(2,4-dioxotetrahydropyrimidin-1(2H)-yl)-1-oxoisoindolin-5-yl)methyl)piperidin-4-yl)methyl)amino)phenyl)cyclopropane-1-carbonitrile]

Degradation of substrate protein AR (substrate protein remaining %) (AR): A (0%≤substrate protein remaining %≤80%)
SMILES: Cn1cc(-c2cc(S(C)(=O)=O)ccc2OCc2ccc3c(c2)CN(N2CCC(=O)NC2=O)C3=O)c2cc[nH]c2c1=O [GT-06413, 1-(5-((2-(6-methyl-7-oxo-6,7-dihydro-1H-pyrrolo[2,3-c]pyridin-4-yl)-4-(methylsulfonyl)phenoxy)methyl)-1-oxoisoindolin-2-yl)dihydropyrimidine-2,4 (1H,3H)-dione]

Degradation of substrate protein AR (substrate protein remaining %) (AR): A (0%≤substrate protein remaining %≤80%)
SMILES: CC1(C)[C@H](NC(=O)c2ccc(N3CCC(CN4CCN(c5ccc6c(c5F)C(=O)N(N5CCC(=O)NC5=O)C6=O)CC4)CC3)nc2)C(C)(C)[C@H]1Oc1ccc(C#N)c(Cl)c1 [GT-05828, N-((1r,3r)-3-(3-chloro-4-cyanophenoxy)-2,2,4,4-tetramethylcyclobutyl)-6-(4-((4-(2-(2,4-dioxotetrahydropyrimidin-1(2H)-yl)-4-fluoro-1,3-dioxoisoindolin-5-yl)piperazin-1-yl)methyl)piperidin-1-yl)nicotinamide]
